{
  "source": "ChEMBL document CHEMBL5113463",
  "about": "“Discovery and preclinical evaluations of JBD0131, a novel nitrodihydro-imidazooxazole anti-tuberculosis agent” (Bioorg Med Chem Lett, 2022)",
  "key": {"[1]": {"assay": "Plasma protein binding in rat assessed as bound fraction", "type": "ADME, cell-free", "conditions": "read-out: PPB (converted); call rule not given here"}, "[2]": {"assay": "Cytotoxicity against African green monkey vero cells assessed as reduction in cell viability", "type": "toxicity, cell-based", "conditions": "chlorocebus sabaeus"}, "[3]": {"molecular_target": "Voltage-dependent L-type calcium channel subunit alpha-1C (Homo sapiens, UniProt Q13936)", "assay": "Inhibition of human Cav1.2"}, "[4]": {"assay": "Metabolic stability in human liver microsomes assessed as half life", "type": "ADME, Microsome"}, "[5]": {"assay": "Efflux ratio of apparent permeability across basolateral to apical over apical to basolateral membrane in dog MDCK cells", "type": "ADME, cell-based, Canis lupus familiaris"}, "[6]": {"assay": "Oral bioavailability in Beagle dog at 2 mg/kg", "type": "ADME, organism-based, Canis lupus familiaris", "conditions": "in vivo"}, "[7]": {"molecular_target": "T1, Cytochrome P450 2B6 (Homo sapiens, UniProt P20813)", "T1 sequence (P20813 whole entry)": "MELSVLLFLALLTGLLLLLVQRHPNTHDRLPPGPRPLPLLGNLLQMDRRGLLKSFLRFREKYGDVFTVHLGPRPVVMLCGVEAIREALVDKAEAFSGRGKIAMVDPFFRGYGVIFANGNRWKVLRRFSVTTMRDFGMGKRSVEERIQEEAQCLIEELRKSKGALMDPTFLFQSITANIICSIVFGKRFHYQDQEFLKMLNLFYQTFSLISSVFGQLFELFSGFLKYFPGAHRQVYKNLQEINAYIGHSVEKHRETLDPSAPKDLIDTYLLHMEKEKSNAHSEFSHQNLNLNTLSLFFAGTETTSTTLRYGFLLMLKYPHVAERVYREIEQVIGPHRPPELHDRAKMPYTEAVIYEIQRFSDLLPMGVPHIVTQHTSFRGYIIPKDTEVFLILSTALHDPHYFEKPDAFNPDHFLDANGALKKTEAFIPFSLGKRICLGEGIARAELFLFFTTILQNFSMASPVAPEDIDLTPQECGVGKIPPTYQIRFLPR", "assay": "Inhibition of CYP2B6 (unknown origin)", "type": "ADME"}, "[8]": {"tested_on": "Mycobacterium tuberculosis", "assay": "In vivo antimycobacterial activity against Mycobacterium tuberculosis Erdman infected mouse acute tuberculosis infection model assessed as reduction lung bacterial loads by measuring CFU at 10 to 100 mg/kg for 3 weeks at 5 days/week", "type": "functional, organism-based", "conditions": "dose 10-100 mg/kg, DDE = dose-dependent effect"}, "[9]": {"assay": "Drug distribution in Sprague-Dawley rat kidney at 10 mg/kg, po administered as C14-lableled compound and assessed as radioactivity", "type": "ADME, organism-based", "conditions": "in vivo"}, "[10]": {"molecular_target": "Cytochrome P450 2C19 (Homo sapiens, UniProt P33261)", "sequence (P33261 whole entry)": "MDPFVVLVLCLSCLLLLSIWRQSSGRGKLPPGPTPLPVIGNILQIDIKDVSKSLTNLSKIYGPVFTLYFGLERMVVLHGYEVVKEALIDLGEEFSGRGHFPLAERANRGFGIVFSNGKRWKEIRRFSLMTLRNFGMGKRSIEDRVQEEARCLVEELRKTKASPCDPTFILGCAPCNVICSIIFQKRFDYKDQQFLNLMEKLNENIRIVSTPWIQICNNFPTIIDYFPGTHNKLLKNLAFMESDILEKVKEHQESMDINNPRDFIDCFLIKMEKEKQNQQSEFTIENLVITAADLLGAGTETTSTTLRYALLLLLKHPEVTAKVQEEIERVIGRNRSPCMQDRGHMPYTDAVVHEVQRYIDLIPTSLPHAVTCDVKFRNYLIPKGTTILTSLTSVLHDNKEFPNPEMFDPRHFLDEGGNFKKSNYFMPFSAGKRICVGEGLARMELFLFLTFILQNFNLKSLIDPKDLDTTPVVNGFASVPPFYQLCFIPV", "assay": "Inhibition of CYP2C19 (unknown origin)", "type": "ADME"}, "[11]": {"assay": "Mutagenicity in Salmonella typhimurium by Ames test", "type": "toxicity", "conditions": "salmonella enterica subsp. enterica serovar typhimurium; route au"}, "[12]": {"assay": "AUC (0-last) in Beagle dog at 2 mg/kg, po", "type": "ADME, organism-based, Canis lupus familiaris", "conditions": "in vivo"}, "[13]": {"molecular_target": "Voltage-gated inwardly rectifying potassium channel KCNH2 (Homo sapiens, UniProt Q12809)", "sequence (Q12809 whole entry)": "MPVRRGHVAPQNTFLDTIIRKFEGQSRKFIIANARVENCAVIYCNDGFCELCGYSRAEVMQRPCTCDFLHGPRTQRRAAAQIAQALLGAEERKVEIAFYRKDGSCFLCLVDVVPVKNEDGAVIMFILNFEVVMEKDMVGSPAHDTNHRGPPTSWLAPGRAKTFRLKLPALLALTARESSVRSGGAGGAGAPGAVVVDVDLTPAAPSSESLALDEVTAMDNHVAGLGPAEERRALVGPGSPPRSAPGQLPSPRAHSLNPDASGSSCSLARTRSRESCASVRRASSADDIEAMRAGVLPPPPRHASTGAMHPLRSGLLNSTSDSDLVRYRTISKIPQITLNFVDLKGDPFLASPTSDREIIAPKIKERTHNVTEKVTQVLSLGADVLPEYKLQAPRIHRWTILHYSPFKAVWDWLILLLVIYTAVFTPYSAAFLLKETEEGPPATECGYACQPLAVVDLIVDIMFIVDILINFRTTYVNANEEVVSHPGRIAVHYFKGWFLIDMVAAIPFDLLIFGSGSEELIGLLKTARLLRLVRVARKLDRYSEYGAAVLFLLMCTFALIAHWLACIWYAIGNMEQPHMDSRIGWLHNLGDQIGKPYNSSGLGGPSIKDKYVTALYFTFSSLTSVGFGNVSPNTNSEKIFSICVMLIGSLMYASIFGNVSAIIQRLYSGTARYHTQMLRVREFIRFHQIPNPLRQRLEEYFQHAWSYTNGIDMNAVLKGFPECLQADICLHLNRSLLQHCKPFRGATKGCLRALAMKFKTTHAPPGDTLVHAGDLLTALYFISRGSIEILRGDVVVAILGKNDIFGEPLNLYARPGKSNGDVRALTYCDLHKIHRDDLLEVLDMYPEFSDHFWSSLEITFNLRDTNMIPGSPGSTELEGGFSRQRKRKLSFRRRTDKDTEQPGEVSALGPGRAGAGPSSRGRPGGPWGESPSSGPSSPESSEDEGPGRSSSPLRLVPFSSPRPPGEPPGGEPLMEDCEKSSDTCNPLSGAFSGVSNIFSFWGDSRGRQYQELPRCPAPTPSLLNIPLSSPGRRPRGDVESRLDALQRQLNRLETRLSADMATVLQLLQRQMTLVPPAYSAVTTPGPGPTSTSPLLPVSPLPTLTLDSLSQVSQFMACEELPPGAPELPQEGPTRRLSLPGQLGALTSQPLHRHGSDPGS", "assay": "Inhibition of human ERG", "type": "toxicity"}, "[14]": {"assay": "Drug distribution in Sprague-Dawley rat liver at 10 mg/kg, po administered as C14-lableled compound and assessed as radioactivity", "type": "ADME, organism-based", "conditions": "in vivo"}, "[15]": {"assay": "Apparent permeability across basolateral to apical side in dog MDCK cells", "type": "ADME, cell-based, Canis lupus familiaris"}, "[16]": {"tested_on": "Mycobacterium tuberculosis", "assay": "Antimycobacterial activity against Mycobacterium tuberculosis H37Rv assessed as bacterial growth inhibition incubated for 10 days under hypoxic condition followed by 28 hrs incubation under normoxic condition by Low-Oxygen-Recovery Assay", "type": "functional", "conditions": "264 h, time 11 day"}, "[17]": {"molecular_target": "Sodium channel protein type 5 subunit alpha (Homo sapiens, UniProt Q14524)", "sequence (Q14524 whole entry)": "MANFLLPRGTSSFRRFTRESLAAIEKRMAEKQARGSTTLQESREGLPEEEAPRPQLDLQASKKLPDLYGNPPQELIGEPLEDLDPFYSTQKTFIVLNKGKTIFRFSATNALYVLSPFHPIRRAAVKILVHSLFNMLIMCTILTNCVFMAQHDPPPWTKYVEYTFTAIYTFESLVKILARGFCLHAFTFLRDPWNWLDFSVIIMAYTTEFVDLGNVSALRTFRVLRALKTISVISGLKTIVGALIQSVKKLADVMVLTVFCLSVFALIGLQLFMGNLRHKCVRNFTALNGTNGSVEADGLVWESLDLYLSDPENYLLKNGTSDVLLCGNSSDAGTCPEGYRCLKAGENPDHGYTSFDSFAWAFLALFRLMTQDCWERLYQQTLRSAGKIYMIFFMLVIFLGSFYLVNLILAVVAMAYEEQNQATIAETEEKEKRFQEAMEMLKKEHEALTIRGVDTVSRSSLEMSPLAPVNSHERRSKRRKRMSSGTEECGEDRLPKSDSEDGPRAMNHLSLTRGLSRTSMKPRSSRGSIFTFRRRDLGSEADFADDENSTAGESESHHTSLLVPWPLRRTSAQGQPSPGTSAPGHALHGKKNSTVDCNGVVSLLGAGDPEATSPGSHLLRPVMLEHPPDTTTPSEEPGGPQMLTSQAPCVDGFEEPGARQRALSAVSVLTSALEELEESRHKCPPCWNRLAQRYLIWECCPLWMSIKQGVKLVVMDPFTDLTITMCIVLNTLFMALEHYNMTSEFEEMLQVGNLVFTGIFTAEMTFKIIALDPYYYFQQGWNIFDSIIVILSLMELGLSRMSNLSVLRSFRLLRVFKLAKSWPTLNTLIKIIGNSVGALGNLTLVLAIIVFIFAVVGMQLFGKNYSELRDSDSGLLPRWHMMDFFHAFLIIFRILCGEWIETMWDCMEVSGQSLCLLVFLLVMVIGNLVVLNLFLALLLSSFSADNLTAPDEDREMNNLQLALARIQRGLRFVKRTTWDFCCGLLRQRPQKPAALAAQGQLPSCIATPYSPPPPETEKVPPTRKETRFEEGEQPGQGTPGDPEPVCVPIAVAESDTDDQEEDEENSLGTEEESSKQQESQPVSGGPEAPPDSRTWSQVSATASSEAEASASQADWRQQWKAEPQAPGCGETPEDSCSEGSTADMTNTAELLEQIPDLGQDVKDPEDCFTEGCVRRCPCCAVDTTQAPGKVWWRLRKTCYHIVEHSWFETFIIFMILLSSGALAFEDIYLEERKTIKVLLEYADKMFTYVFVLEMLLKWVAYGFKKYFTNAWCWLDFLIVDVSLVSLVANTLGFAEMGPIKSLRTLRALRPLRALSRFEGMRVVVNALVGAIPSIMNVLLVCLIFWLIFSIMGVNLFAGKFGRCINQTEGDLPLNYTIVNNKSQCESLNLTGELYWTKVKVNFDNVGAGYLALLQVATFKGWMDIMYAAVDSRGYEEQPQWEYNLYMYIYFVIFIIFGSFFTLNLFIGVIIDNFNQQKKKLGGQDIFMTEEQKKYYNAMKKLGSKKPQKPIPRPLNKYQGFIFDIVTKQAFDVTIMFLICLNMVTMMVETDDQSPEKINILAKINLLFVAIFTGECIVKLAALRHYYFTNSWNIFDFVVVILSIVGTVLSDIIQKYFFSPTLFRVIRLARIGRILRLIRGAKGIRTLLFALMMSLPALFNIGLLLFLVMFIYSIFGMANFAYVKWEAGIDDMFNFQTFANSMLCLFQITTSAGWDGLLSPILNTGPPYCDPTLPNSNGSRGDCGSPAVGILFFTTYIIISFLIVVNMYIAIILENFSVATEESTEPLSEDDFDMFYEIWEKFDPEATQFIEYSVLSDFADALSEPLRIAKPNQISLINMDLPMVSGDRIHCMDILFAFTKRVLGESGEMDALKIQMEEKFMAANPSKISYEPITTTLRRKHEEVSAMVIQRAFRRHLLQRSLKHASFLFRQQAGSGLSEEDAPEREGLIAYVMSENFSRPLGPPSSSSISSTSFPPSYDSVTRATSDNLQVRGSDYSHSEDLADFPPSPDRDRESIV", "assay": "Inhibition of NaV 1.5 (unknown origin)"}, "[18]": {"molecular_target": "Cytochrome P450 2C9 (Homo sapiens, UniProt P11712)", "sequence (P11712 whole entry)": "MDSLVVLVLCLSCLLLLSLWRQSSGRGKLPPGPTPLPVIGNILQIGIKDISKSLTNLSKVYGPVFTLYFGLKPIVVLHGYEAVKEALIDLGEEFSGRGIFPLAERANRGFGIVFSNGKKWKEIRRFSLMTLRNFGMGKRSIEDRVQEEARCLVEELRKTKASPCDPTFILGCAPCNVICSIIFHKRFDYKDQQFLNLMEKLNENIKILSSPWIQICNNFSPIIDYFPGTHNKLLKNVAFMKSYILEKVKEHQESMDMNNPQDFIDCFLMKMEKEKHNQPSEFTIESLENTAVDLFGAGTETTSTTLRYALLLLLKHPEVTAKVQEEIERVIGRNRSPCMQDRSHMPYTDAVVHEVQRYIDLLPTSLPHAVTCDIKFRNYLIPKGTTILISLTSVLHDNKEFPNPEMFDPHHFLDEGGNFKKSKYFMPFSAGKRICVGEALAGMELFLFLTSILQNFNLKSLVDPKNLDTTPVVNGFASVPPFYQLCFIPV", "assay": "Inhibition of CYP2C9 (unknown origin)", "type": "ADME"}, "[19]": {"assay": "Volume of distribution in Sprague-Dawley rat at 1 mg/kg, iv", "type": "ADME, organism-based", "conditions": "in vivo"}, "[20]": {"assay": "Aqueous solubility of compound at pH 7.4", "type": "physicochemical", "conditions": "buffer"}, "[21]": {"assay": "Half life in CD-1 mouse at 0.6 mg/kg, iv", "type": "ADME, organism-based", "conditions": "in vivo"}, "[22]": {"assay": "Metabolic stability in rat liver microsomes assessed as half life", "type": "ADME, Microsome"}, "[23]": {"assay": "Metabolic stability in cynomolgus monkey liver microsomes assessed as half life", "type": "ADME, Macaca fascicularis, Microsome"}, "[24]": {"assay": "Volume of distribution in CD-1 mouse at 0.6 mg/kg, iv", "type": "ADME, organism-based", "conditions": "in vivo"}, "[25]": {"tested_on": "Mycobacterium tuberculosis", "assay": "Antimycobacterial activity against Mycobacterium tuberculosis Erdman assessed as bacterial growth inhibition", "type": "functional"}, "[26]": {"tested_on": "Mycobacterium tuberculosis", "assay": "In vivo antimycobacterial activity against Mycobacterium tuberculosis Erdman infected mouse chronic tuberculosis infection model assessed as reduction log10 CFU at 10 to 100 mg/kg for 4 weeks at 5 days/week administered after 31 days post infection relative to control", "type": "functional", "conditions": "dose 10-100 mg/kg"}, "[27]": {"assay": "Plasma protein binding in mouse assessed as bound fraction", "type": "ADME, cell-free", "conditions": "read-out: PPB (converted)"}, "[28]": {"molecular_target": "Cytochrome P450 3A4 (Homo sapiens, UniProt P08684)", "sequence (P08684 whole entry)": "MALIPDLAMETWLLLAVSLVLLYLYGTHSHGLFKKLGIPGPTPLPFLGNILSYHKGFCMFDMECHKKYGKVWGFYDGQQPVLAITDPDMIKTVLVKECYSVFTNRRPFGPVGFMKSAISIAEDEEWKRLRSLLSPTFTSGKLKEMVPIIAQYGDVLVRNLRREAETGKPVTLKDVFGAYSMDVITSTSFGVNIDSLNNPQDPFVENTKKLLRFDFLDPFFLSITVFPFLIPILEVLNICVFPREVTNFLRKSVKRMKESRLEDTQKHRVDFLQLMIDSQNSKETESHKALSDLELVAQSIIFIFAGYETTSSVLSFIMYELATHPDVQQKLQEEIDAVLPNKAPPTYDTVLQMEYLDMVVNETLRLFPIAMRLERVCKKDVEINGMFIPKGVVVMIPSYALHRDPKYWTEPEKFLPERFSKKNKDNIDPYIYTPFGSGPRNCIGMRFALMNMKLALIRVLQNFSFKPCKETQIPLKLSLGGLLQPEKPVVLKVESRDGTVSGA", "assay": "Inhibition of CYP3A4 (unknown origin)", "type": "ADME"}, "[29]": {"assay": "Cmax in CD-1 mouse at 5 mg/kg, po", "type": "ADME, organism-based", "design": "dose 5 mg/kg, route po", "conditions": "in vivo"}, "[30]": {"assay": "Half life in Sprague-Dawley rat at 1 mg/kg, iv", "type": "ADME, organism-based", "conditions": "in vivo"}, "[31]": {"molecular_target": "T2, A-type voltage-gated potassium channel KCND3 (Homo sapiens, UniProt Q9UK17)", "T2 sequence (Q9UK17 whole entry)": "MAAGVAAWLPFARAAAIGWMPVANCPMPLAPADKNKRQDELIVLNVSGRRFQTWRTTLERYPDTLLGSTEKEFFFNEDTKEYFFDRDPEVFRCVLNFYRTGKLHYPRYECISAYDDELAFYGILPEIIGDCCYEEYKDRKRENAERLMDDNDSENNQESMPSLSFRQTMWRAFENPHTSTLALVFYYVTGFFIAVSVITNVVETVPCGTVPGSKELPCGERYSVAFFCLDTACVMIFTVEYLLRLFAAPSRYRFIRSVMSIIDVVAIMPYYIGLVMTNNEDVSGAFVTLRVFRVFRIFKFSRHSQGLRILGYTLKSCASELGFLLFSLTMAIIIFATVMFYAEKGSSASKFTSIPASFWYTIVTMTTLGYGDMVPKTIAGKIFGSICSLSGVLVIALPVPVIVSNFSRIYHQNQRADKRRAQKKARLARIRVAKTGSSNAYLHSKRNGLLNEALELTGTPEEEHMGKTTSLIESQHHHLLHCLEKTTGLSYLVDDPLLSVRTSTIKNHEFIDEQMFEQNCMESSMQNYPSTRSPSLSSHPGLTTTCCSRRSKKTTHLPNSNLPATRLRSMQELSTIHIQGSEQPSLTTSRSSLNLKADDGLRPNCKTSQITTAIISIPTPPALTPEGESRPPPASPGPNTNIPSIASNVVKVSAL", "assay": "Inhibition of Kv4.3 (unknown origin)"}, "[32]": {"assay": "Half life in Beagle dog at 0.5 mg/kg, iv", "type": "ADME, organism-based, Canis lupus familiaris", "conditions": "in vivo"}},
  "data": [
    {"smiles": "C[C@]1(CN2Cc3nc(-c4ccc(F)cc4)sc3C2)CN=C(N)O1", "values": [
      {"measurement": "fraction unbound", "setting": "[1]", "value": 0.055},
      {"measurement": "CC50", "setting": "[2]", "value": "> 32", "unit": "µg/mL"},
      {"measurement": "IC50", "setting": "[3]", "value": "> 13.3", "unit": "µM"},
      {"measurement": "half-life", "setting": "[4]", "value": 107, "unit": "min"},
      {"measurement": "efflux ratio", "setting": "[5]", "value": 0.76},
      {"measurement": "bioavailability", "setting": "[6]", "value": 26.4, "unit": "%"},
      {"measurement": "IC50", "setting": "[7]", "value": "> 100", "unit": "µM"},
      {"measurement": "Activity", "setting": "[8]", "value": "Dde"},
      {"measurement": "Drug uptake", "setting": "[9]", "value": "Active"},
      {"measurement": "IC50", "setting": "[10]", "value": "> 100", "unit": "µM"},
      {"measurement": "Activity", "setting": "[11]", "value": "Non-Toxic"},
      {"measurement": "AUClast", "setting": "[12]", "value": 1910, "unit": "ng·h"},
      {"measurement": "IC50", "setting": "[13]", "value": "> 13.3", "unit": "µM"},
      {"measurement": "Drug uptake", "setting": "[14]", "value": "Active"},
      {"measurement": "Papp B→A", "setting": "[15]", "value": 15.8, "unit": "×10⁻⁶ cm/s"},
      {"measurement": "MIC", "setting": "[16]", "value": 5.63, "unit": "µg/mL"},
      {"measurement": "IC50", "setting": "[17]", "value": "> 13.3", "unit": "µM"},
      {"measurement": "IC50", "setting": "[18]", "value": "> 100", "unit": "µM"},
      {"measurement": "Vd", "setting": "[19]", "value": 5.56, "unit": "L/kg"},
      {"measurement": "solubility", "setting": "[20]", "value": 13.5, "unit": "µM"},
      {"measurement": "half-life", "setting": "[21]", "value": 195, "unit": "min"},
      {"measurement": "half-life", "setting": "[22]", "value": 68, "unit": "min"},
      {"measurement": "half-life", "setting": "[23]", "value": 75, "unit": "min"},
      {"measurement": "Vd", "setting": "[24]", "value": 2.69, "unit": "L/kg"},
      {"measurement": "MIC", "setting": "[25]", "value": 0.109, "unit": "µg/mL"},
      {"measurement": "Activity", "setting": "[26]", "value": 1, "unit": "log10CFU"},
      {"measurement": "fraction unbound", "setting": "[27]", "value": 0.018},
      {"measurement": "IC50", "setting": "[28]", "value": "> 100", "unit": "µM"},
      {"measurement": "Cmax", "setting": "[29]", "value": 753, "unit": "ng/mL"},
      {"measurement": "half-life", "setting": "[30]", "value": 167, "unit": "min"},
      {"measurement": "IC50", "setting": "[31]", "value": "> 13.3", "unit": "µM"},
      {"measurement": "half-life", "setting": "[32]", "value": 362, "unit": "min"}
    ]}
  ]
}
